Values joined by “and” are separate entries in the source; they are usually repeats but may differ in a detail not shown here. Identical values can stand only once.
What was measured:
blood glucose levels [1] = experiment: Insulin tolerance test, naltrexone and bupropion, glucose AUC (Example 8); type: in vivo, mice; details: naltrexone 3 mg/kg, bupropion 50 mg/kg
Protocol: (§1) A baseline blood glucose determination was made two hours post-injection. Mice were then given a standard I.P. injection of insulin. Blood glucose levels were then followed for two hours (at 15 min, 30 min, 1 h and 2 h). […] Glucose levels are in mg/dl.
Total areas under the curve (AUC) were calculated based on glucose levels at each time point for each mouse. AUC is a summation of glucose levels observed at each time point.

blood glucose levels [2] = experiment: Blood glucose after olanzapine minipump and zonisamide injections (Example 9); type: in vivo, Female Sprague-Dawley rats; details: rats; olanzapine 1.75 mg/day by minipump, zonisamide 26 mg/kg twice daily; 13 days after olanzapine implant, 6 days after zonisamide injections began; vehicle 92.2
Protocol: Female Sprague-Dawley rats, weighing about 235 grams at the start of the experiment were used. […] The rats were subsequently returned to their home cages after recovery. The minipumps delivered 5 μL per hour for 14 days. […] The animals were housed individually and supplied with standard laboratory chow. Food consumed and animal weights were recorded every day. […] Rats were allowed to recover after pump implantation, and then received twice daily injections of zonisamide 26 mg/kg. […] The results are shown below (Table 5).

blood glucose levels [3] = experiment: Insulin tolerance test, naltrexone and fluoxetine (Example 7); type: in vivo, Mice; details: for Blood glucose, 15 min / Blood glucose, 30 min / Blood glucose, 1 h / Blood glucose, 2 h / Blood glucose, Baseline: individual mice (n=3), I.P. fluoxetine 8.5 mg/kg and/or naltrexone 2.5 mg/kg; for Blood glucose, 15 min: 15 min after I.P. insulin; for Blood glucose, 30 min: 30 min after I.P. insulin; for Blood glucose, 1 h: 1 h after I.P. insulin; for Blood glucose, 2 h: 2 h after I.P. insulin; for Blood glucose, Baseline: baseline two hours post-injection, before I.P. insulin; for Effect on insulin tolerance / insulin resistance (in words): mice, fluoxetine 8.5 mg/kg, naltrexone 2.5 mg/kg I.P., compared with vehicle or either compound alone
Protocol: as §1

| Compound | Blood Glucose, Average (blood glucose levels [2]) | Blood glucose, 15 min (blood glucose levels [3]) | Blood glucose, 30 min (blood glucose levels [3]) | Blood glucose, 1 h (blood glucose levels [3]) | Blood glucose, 2 h (blood glucose levels [3]) | Blood glucose, Baseline (blood glucose levels [3]) | Effect on insulin tolerance / insulin resistance (in words) (blood glucose levels [3]) | further results |
| --- | --- | --- | --- | --- | --- | --- | --- | --- |
| CC(NC(C)(C)C)C(=O)c1cccc(Cl)c1 (centres unmarked) [Bupropion, bupropion] | – | – | – | – | – | – | – | Total area under the curve (AUC) of glucose levels, each mouse (blood glucose levels [1]; individual mice (n=12), summation of glucose levels at each time point): 13613 and 12038 and 9083 and 14003 and 9668 and 8003 and 8715 (2×); Decrease in AUC versus vehicle (blood glucose levels [1]): 4.3%; Mean AUC as % of vehicle AUC (blood glucose levels [1]; vehicle mean=11136.2): 95.7% |
| Cc1cc2c(s1)Nc1ccccc1N=C2N1CCN(C)CC1 [Olanzapine, olanzapine] | 120.4 mg/dL | – | – | – | – | – | – | – |
| NS(=O)(=O)Cc1noc2ccccc12 [Zonisamide, zonisamide] | 117.6 mg/dL | – | – | – | – | – | – | – |
| CNCCC(Oc1ccc(C(F)(F)F)cc1)c1ccccc1 (centres unmarked) [fluoxetine] | – | 63 mg/dL and 82 mg/dL and 84 mg/dL | 93 mg/dL and 90 mg/dL and 80 mg/dL | 118 mg/dL and 138 mg/dL and 89 mg/dL | 228 mg/dL and 169 mg/dL and 189 mg/dL | 135 mg/dL and 161 mg/dL and 145 mg/dL | neither fluoxetine nor naltrexone alone had an effect on insulin tolerance | – |
| O=C1CC[C@@]2(O)[C@H]3Cc4ccc(O)c5c4[C@@]2(CCN3CC2CC2)[C@H]1O5 [naltrexone] | – | 68 mg/dL and 62 mg/dL and 65 mg/dL | 84 mg/dL and 82 mg/dL and 81 mg/dL | 80 mg/dL and 127 mg/dL | 181 mg/dL and 175 mg/dL and 186 mg/dL | 137 mg/dL and 111 mg/dL and 134 mg/dL | neither fluoxetine nor naltrexone alone had an effect on insulin tolerance | – |
